Legend:
[1] = test system: PFC mTORC1-related signaling pathways; experiment: PFC mTORC1-related signaling and neurotrophic factor genes after acute administration; type: in vivo
Source text: As a result, glutamate release is increased which enhances AMPA mediated currents, BDNF release, and mTORC1 activation. Increased synaptogenesis has been associated with enhanced mTORC1 signaling in the PFC.

[2] = test system: patients with acute exacerbated schizophrenia; experiment: Clinical studies in patients with acute exacerbated schizophrenia, emotional experience symptoms; type: in vivo, human; details: 60 mg P.O. once daily, up to 28 days, two clinical studies, vs placebo
Source text: Social avoidance can be a critical and debilitating symptom in patients suffering from anxiety disorders, especially social anxiety disorder, as well as in patients suffering from traumatic anxiety disorders. Social avoidance is often one of the key determinants of whether a person with a severe anxiety disorder is capable of maintaining familial relationships or employment relationships. […] Negative symptoms of schizophrenia can be divided into two categories: emotional experience (e.g., emotional withdrawal, passive social withdrawal, active social avoidance) and emotional expression (e.g., blunted effect, poor rapport, lack of spontaneity, and motor retardation). […] These are the symptoms that are most highly correlated with interpersonal functioning.

[3] = molecular target: 5-HT2A receptor; details: read-out: 5-HT2A receptor antagonism Ki; cited from earlier work
[4] = molecular target: D2 receptor; details: presynaptic D2 receptor partial agonism and postsynaptic D2 receptor antagonism; cited from earlier work
[5] = test system: glutamatergic NMDA NR2B (GluN2B) receptors; details: mesolimbic; cited from earlier work
[6] = test system: NMDA and AMPA receptor; details: rat mPFC slices; cited from earlier work
[7] = test system: 5-HT2A receptor; details: cited from earlier work
[8] = test system: NMDA/AMPA receptors and downstream BDNF and mTOR signaling; details: compared with ketamine; cited from earlier work
[9] = in vivo; cited from earlier work
[10] = test system: right lateral PFC; details: patients with MDD, after ketamine treatment; cited from earlier work
[11] = test system: dendritic spines in cells of the frontal cortex; details: cited from earlier work
[12] = test system: serotonin receptor; details: pre-treatment, dose blocking about 30% of 5-HT2A receptors; cited from earlier work
[13] = test system: 5-HT2A receptor; details: pre-treatment; cited from earlier work
[14] = test system: medial prefrontal cortex neurons; details: mouse, in vivo; cited from earlier work

In the case of `CN1CCN2c3c(cccc31)[C@@H]1CN(CCCC(=O)c3ccc(F)cc3)CC[C@@H]12` [Lumateperone, 4-((6bR,10aS)-3-methyl-2,3,6b,9,10,10a-hexahydro-1H-pyrido[3′,4′: 4,5]pyrrolo[1,2,3-de]quinoxalin-8 (7H)-yl)-1-(4-fluorophenyl)-1-butanone], the “PFC mTORC1-related signaling and neurotrophic factor genes” value [1] is listed as “stimulates PFC mTORC1-related signaling pathways, as well as some important genes coding for neurotrophic factors, such as BDNF and VEGF”, the “symptoms of emotional experience” value [2] is listed as “significant and unexpected improvement in symptoms of emotional experience compared to placebo” and the Ki [3] is listed as 0.5 nM. For the same molecule, the Ki [4] was 32 nM, the “phosphorylation of NMDA NR2B (GluN2B) receptors” value [5] was “stimulates phosphorylation of glutamatergic NMDA NR2B (GluN2B) receptors in a mesolimbic specific manner” and the “glutamatergic neurotransmission, NMDA and AMPA receptor conductance” value [6] was “enhance glutamatergic neurotransmission by effects on both NMDA and AMPA receptor conductance”. The “5-HT2A receptor functional activity” value [7] was “strong antagonist of the 5-HT2A receptor”, the “serotonin receptor agonist activity” value [7] was “does not have serotonin receptor agonist activity” and the “activity on NMDA/AMPA receptors and downstream BDNF and mTOR signaling” value [8] was “very similar activity on NMDA/AMPA receptors and downstream BDNF and mTOR signaling as ketamine”.
For `CN(C)CCc1c[nH]c2cccc(O)c12` [Psilocin], the “5-HT2A receptor functional activity” value [7] is listed as “strong agonist of the 5-HT2A receptor” and the side effects [9] is listed as “can cause nausea and panic attacks”.
For `CNC1(c2ccccc2Cl)CCCCC1=O` (centres unmarked) [ketamine], the “functional connectivity in the right lateral PFC” value [10] is listed as “improved functional connectivity in the right lateral PFC”.
For `O=C(c1ccc(F)cc1)C1CCN(CCn2c(=O)[nH]c3ccccc3c2=O)CC1` [ketanserin], the “effect on psilocybin-induced growth of dendritic spines” value ([11]; pre-treatment with 5-HT2A receptor antagonist) is given as “did not eliminate the psilocybin-induced growth of dendritic spines”, the “psilocybin-induced head twitch response” value [12] is given as “sufficient to block the psilocybin-induced head twitch response” and the 5-HT2A receptors blocked [13] is given as “about 30%”.
In the case of `CN(C)CCc1c[nH]c2cccc(OP(=O)(O)O)c12` [psilocybin], the “5-HT2A receptor functional activity” value [7] is listed as “strong agonist of the 5-HT2A receptor”, the “persistence of changes in dendritic spine density” value ([11]; following the single dose) is listed as “at least a month” and the “dendritic spine formation/elimination rate” value ([11]; male and female mice) is listed as “increased formation rate, rather than reduced elimination rate”. The “dendritic spine density and spine head width” value ([11]; single dose, within one day) was “measurable increase in dendritic spine density, as well as increased spine head width, within one day” and the “excitatory neurotransmission in medial prefrontal cortex (mEPSCs)” value [14] was “increased excitatory neurotransmission in the medial prefrontal cortex”.

Reference: patent US20260345598A1 (INTRA-CELLULAR THERAPIES, INC., priority 2023, published 2026)
